# Legend:
# human PBMCs = assay: Viability and proliferation of human PBMCs; format: cell-based
# Description: Cell viability was assessed following treatment of human PBMCs with trabedersen in vitro using the Trypan blue exclusion test. Freshly isolated, IL-2 activated PBMCs from healthy donors and HGG patients were incubated either without trabedersen or with 1, 5, 10 or 80 μM trabedersen for 2, 3, 6, 7, 14, and 21 day. […] There was no difference in cell viability between untreated and trabedersen treated cells.
# C8161 human melanoma = assay: Orthotopic C8161 human melanoma model; conditions: group 2: 16 mg/kg SC 3 times/week
# [1] = system: patient derived autologous HGG cells; assay: LAK cell-mediated autologous cytotoxicity (calcein-release assay); format: cell-based, human; conditions: untreated control 16%
# Description: Human HGG cells were obtained from surgical specimens of 5 patients. PBMCs from these patients were activated with human recombinant IL-2 to generate lymphokine-activated killer (LAK) cells as effector cells, which are known to lyse most autologous and allogenic fresh human tumor cells. LAK cell-mediated cytotoxicity against the patient derived autologous HGG cells (target cells) was tested in a cell co-culture system using the calcein-release assay.
substance,measurement,setting,value
"cggcatgtct attttgta (antisense CGGCATGTCTATTTTGTA; chemistry not given here) [OT-101, synthetic antisense oligodeoxynucleotide against TGF-beta2]","PBMC proliferation, of untreated control cells","human PBMCs; 80 μM, 7 days",67%
same,effects on the viability of PBMCs,"human PBMCs; 1, 5, 10 or 80 μM, up to 21 day, Trypan blue",No relevant effects
same,Proliferation of PBMCs,"human PBMCs; 5, 10 or 50μM",within the range of variation
same,SI=CC50/EC50,SARS-COV-2 USA_WA1/2020; SARS-CoV-2,>500
same,SI (CC50/EC50),"SARS-COV-2 USA_WA1/2020; SARS-CoV-2, Vero 76 cells",>500
same,EC50: 50% effective antiviral concentration,"SARS-COV-2 USA_WA1/2020; SARS-CoV-2 USA_WA1/2020, Vero 76, CPE neutral red, day 5",2.0 µg/mL
same,EC50,"SARS-COV-2 USA_WA1/2020; read-out: EC50 (value in brackets), SARS-CoV-2 USA_WA1/2020, Vero 76",330 nM
same,Tumor growth suppressed versus control group 1 on day 42,C8161 human melanoma,2%
same,"autologous cytotoxicity against human HGG cells, mean",[1],40%

# Source: patent US20230201290A1, “TGF-BETA INHIBITION, AGENTS AND COMPOSITION THEREFOR” (GMP BIOTECHNOLOGY LIMITED, priority 2020, published 2023)
